Experimental data published in patent publication US10689381B2 (priority 2017, dated 2020).
Converted amounts (≈) assume the structure as drawn. Where two headings read alike, the source gives them in different places.

Columns and labels:
A549-T24 = assay: cells; assay type: cell-based, human
Text: (§1) 2001, 98:11737; Kavallaris et al., Brit. J. Cancer. 1999, 80:1020; and Kavallaris et al., J. Clin. Invest. 1997, 100:1282]. As a result, the comparison of cell growth inhibition of candidate drugs against A549 vs A549-T24 has been used to characterize potential resistance due to increased expression of class III β-tubulin [Goncalves et al., Proc. Natl. Acad. Sci. USA. 2001, 98:11737; Kavallaris et al., Brit. J. Cancer. 1999, 80:1020; and Kavallaris et al., J. Clin. Invest. 1997, 100:1282].

A549 = assay: cells; assay type: cell-based, human; details: read-out: IC50 A549
Text: as §1

HCT116/VM46 = assay: cells; assay type: cell-based, human
Method: Compounds were tested for their cell growth inhibition of L1210 (ATCC no. CCL-219, mouse lymphocytic leukemia), HCT116 (ATCC no. CCL-247, human colorectal carcinoma), and HCT116/VM46 (a vinblastine-resistant strain of HCT116) cells in culture. A population of cells (>1×10^6 cells/mL as determined with a hemocytometer) was diluted with Dulbecco's Modified Eagle Medium (DMEM, Gibco) containing 10% fetal bovine serum (FBS, Gibco) to give a final concentration of 30,000 cells/mL. To each well of a 96-well plate (Corning® Costar®) was added 100 μL of the cell media solution with a multichannel pipet. The cultures were incubated at 37° C. in an atmosphere of 5% CO2 and 95% humidified air for 24 hours.
The test compounds were then added to the plate as follows: test compounds were diluted in DMSO to a concentration of 1 mM. 10-Fold serial dilutions in DMSO were next performed on a separate 96-well plate. Fresh culture media (100 μL) was added to each well of cells resulting in 200 μL of medium per well followed by 2 μL of each test agent. Compounds were tested in duplicate (n=2-8 times) at six concentrations between 0-1000 nM or 0-10000 nM. Following the addition of compound, cultures were incubated for an additional 72 hours.
The plates were incubated at 37° C. for 5 minutes (L1210) or 15 min (HCT116 and HCT116/VM46). After the given incubation time, 50 μL of 0.1 N NaOH was added to each well and the absorption at 405 nm was determined using a 96 well plate reader. […]

HCT116 [1] = assay: cells; assay type: cell-based, human; details: for potency relative to vinblastine (less potent / reduced activity): vinblastine-sensitive cell lines
Summary of the method: (§2)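 Compound exposure ran 72 h at six concentrations (0–1000 nM or 0–10000 nM, duplicate) on cells plated at 30,000 cells/mL in 10% FBS DMEM. A closing 37 °C incubation took 15 min (HCT116) or 5 min (L1210).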

L1210 [2] = assay: cells; assay type: cell-based, mouse
Summary of the method: as §2

HCT116 [3] = details: cited from earlier work; for IC50: Table 1, footnote b: Reported in ref. 41
L1210 [4] = details: Table 1, footnote b: Reported in ref. 41; cited from earlier work
cells = assay type: cell-based, human; details: range over L1210 and HCT116, stated in text; read-out: IC50 against vinblastine-sensitive cell lines
Summary of the method: as §2

Tubulin = details: for % displacement: Table 9, displacement of tubulin bound BODIPY-vinblastine
Method: Control studies were performed with BODIPY-VBL in the absence of a competitive ligand (control 1, maximum FI enhancement) and in the absence of tubulin (control 2, no FI enhancement). Percent (%) BODIPY-VBL displacement was calculated by the formula: (control 1 FI−experiment FI)/(Control 1 FI−Control 2 FI)×100%. Reported values are the average of 5 measurements±SD.

Pgp = Pgp (Homo sapiens, UniProt P08183); assay: Drug-stimulated Pgp ATPase activity in membranes (MDR1 PREDEASY ATPase kit)
[5] = Table 6, read-out: IC50 HCT116/VM46
[6] = Table 10, read-out: IC50 (nM), HCT116/VM46

Pgp, sequence (P08183 whole entry): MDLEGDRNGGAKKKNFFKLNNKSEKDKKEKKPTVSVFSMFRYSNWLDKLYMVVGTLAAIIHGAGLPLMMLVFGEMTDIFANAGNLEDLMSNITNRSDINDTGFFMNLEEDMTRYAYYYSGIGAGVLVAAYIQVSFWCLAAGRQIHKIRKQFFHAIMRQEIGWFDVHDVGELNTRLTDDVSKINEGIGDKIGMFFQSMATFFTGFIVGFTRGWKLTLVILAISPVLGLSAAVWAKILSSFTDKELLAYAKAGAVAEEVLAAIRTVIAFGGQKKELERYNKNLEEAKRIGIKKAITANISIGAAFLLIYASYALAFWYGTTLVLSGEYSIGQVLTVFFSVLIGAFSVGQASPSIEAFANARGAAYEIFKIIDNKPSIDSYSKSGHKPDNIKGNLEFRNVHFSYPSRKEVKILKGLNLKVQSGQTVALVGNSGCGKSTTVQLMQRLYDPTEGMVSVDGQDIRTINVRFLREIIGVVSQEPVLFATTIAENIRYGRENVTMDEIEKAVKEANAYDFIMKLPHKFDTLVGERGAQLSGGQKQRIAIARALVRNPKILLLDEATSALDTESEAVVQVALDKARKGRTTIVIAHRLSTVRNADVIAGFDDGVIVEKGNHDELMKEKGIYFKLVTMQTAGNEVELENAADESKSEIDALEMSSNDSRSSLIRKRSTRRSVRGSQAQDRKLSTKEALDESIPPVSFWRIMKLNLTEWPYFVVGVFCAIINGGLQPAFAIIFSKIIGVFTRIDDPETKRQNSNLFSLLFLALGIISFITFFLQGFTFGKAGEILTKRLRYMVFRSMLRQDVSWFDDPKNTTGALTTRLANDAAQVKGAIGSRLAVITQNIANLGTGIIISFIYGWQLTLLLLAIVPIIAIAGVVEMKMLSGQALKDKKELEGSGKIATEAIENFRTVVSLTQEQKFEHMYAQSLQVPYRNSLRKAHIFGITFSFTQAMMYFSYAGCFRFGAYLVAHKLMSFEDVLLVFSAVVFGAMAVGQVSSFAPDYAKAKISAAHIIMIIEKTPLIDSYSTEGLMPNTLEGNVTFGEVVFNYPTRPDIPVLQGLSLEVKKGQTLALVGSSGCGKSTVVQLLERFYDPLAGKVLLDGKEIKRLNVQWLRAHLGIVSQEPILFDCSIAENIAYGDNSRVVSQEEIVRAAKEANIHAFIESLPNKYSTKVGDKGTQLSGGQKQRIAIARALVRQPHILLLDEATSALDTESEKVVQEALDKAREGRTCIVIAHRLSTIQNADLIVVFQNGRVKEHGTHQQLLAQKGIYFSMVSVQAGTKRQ

## CCC1(NC=O)CC2CN(CCc3c([nH]c4ccccc34)C(C(=O)OC)(c3cc4c(cc3OC)N(C)C3C(O)(C(=O)OC)C(OC(C)=O)C5(CC)C=CCN6CCC43C65)C2)C1 (stereo not shown) [Compound 9]
A549-T24
  IC50: 0.7 nM
A549
  IC50: 0.7 nM
HCT116/VM46; HCT116/VM46 vs HCT116
  differential in activity between sensitive and resistant HCT116 cell lines: ~80 fold
HCT116/VM46; read-out: IC50 HCT116/VM46
  IC50: 7.5 nM
HCT116 [1]
  activity relative to free amine Compound 6 (more active): 10 fold
  potency relative to vinblastine (less potent / reduced activity): approximately 10 fold
HCT116 [1]; read-out: IC50 HCT116
  IC50: 0.6 nM
L1210 [2]
  IC50: 0.5 nM
HCT116 [3]
  IC50: 85 nM
L1210 [4]
  IC50: 65 nM

## CC[C@]1(NC(C)=O)C[C@H]2CN(CCc3c([nH]c4ccccc34)[C@@](C(=O)OC)(c3cc4c(cc3OC)N(C)[C@H]3[C@@](O)(C(=O)OC)[C@H](OC(C)=O)[C@]5(CC)C=CCN6CC[C@]43[C@@H]65)C2)C1 [Compound 10, 20′-Acetamidovinblastine]
HCT116/VM46; HCT116/VM46 vs HCT116
  differential in activity between sensitive and resistant HCT116 cell lines: ~80 fold
HCT116 [1]
  activity relative to free amine Compound 6 (more active): 10 fold
  potency relative to vinblastine (less potent / reduced activity): approximately 10 fold
HCT116 [3]
  IC50: 90 nM
L1210 [4]
  IC50: 65 nM

## CC[C@]1(NC(=O)C(F)(F)F)C[C@H]2CN(CCc3c([nH]c4ccccc34)[C@@](C(=O)OC)(c3cc4c(cc3OC)N(C)[C@H]3[C@@](O)(C(=O)OC)[C@H](OC(C)=O)[C@]5(CC)C=CCN6CC[C@]43[C@@H]65)C2)C1 [Compound 11]
HCT116 [3]
  IC50: 690 nM
L1210 [4]
  IC50: 660 nM

## CCC1(NC(=O)c2ccc3c(c2)CCCO3)CC2CN(CCc3c([nH]c4ccccc34)C(C(=O)OC)(c3cc4c(cc3OC)N(C)C3C(O)(C(=O)OC)C(OC(C)=O)C5(CC)C=CCN6CCC43C65)C2)C1 (stereo not shown) [Compound 173]
A549-T24
  IC50: 0.8 nM
A549
  IC50: 1.4 nM
HCT116/VM46; HCT116/VM46 vs HCT116
  differential in activity between sensitive and resistant HCT116 cell lines: 3.8 fold
HCT116/VM46; [5]
  IC50: 1.8 nM
HCT116/VM46; [6]
  IC50: 1.8 nM
HCT116/VM46; read-out: IC50 HCT116/VM46
  IC50: 1.8 nM
HCT116/VM46; read-out: IC50 against resistant HCT116 cell line
  IC50: 1.8 nM
cells
  IC50: 0.4 to 0.5 nM
HCT116 [1]; Table 6, read-out: IC50 HCT116
  IC50: 0.5 nM
HCT116 [1]; Table 9, read-out: IC50 (nM, HCT116)
  IC50: 0.5 nM
HCT116 [1]; Table 10, read-out: IC50 (nM), HCT116
  IC50: 0.5 nM
HCT116 [1]; read-out: IC50 HCT116
  IC50: 0.5 nM
Tubulin
  % displacement: 98 ± 7%
L1210 [2]
  IC50: 0.4 nM
L1210 [2]; Table 6
  IC50: 0.4 nM

## CCC1(O)C[C@H]2CN(CCc3c([nH]c4ccc(F)cc34)[C@@](C(=O)OC)(c3cc4c(cc3OC)N(C)C3C(O)(C(=O)OC)[C@H](OC(C)=O)[C@]5(CC)C=CCN6CC[C@]43[C@@H]65)C2)C1 (stereo partly shown) [Compound 187, 10′-fluorovinblastine, reference compound]
A549-T24; Homo sapiens
  IC50: < 8 nM
A549; Homo sapiens, A549
  IC50: 2.9 nM
HCT116 [1]; Homo sapiens, HCT-116, Table 8, 10′-F compounds, read-out: IC50 HCT116
  IC50: 0.7 nM
HCT116 [1]; Homo sapiens, HCT-116, table b183, read-out: IC50 HCT116
  IC50: 0.8 nM
L1210 [2]; Mus musculus, L1210, Table 8, 10′-F compounds
  IC50: 0.6 nM
L1210 [2]; Mus musculus, L1210, table b183
  IC50: 0.7 nM
HCT116 [3]; recent work, Gotoh et al. 2011
  improvement in activity over vinblastine: ~10 fold

## CC[C@]1(NC(=O)c2ccc(OC)c(OC)c2)C[C@H]2CN(CCc3c([nH]c4ccc(F)cc34)[C@@](C(=O)OC)(c3cc4c(cc3OC)N(C)[C@H]3[C@@](O)(C(=O)OC)[C@H](OC(C)=O)[C@]5(CC)C=CCN6CC[C@]43[C@@H]65)C2)C1 [Compound 190]
cells
  IC50: 0.06 to 0.08 nM
HCT116 [1]; Table 8, 10′-F compounds, read-out: IC50 HCT116
  IC50: 0.08 nM
L1210 [2]; Table 8, 10′-F compounds
  IC50: 0.06 nM

## CC[C@]1(O)C[C@@H]2CN(CCc3c([nH]c4ccccc34)[C@@](C(=O)OC)(c3cc4c(cc3OC)N(C)[C@H]3[C@@](O)(C(=O)OC)[C@H](OC(C)=O)[C@]5(CC)C=CCN6CC[C@]43[C@@H]65)C2)C1 [Vinblastine (1), Vinblastine, reference compound]
A549-T24
  IC50: 6.7 nM
A549
  IC50: 7.7 nM
HCT116/VM46
  MIC, HCT116/VM46 cells: 0.6 µM (≈ 0.487 µg/mL)
  differential in activity between sensitive and resistant HCT116 cell lines: 88 fold
HCT116/VM46; Table 1, read-out: IC50 HCT116/VM46
  IC50: 600 nM
HCT116/VM46; Table 2, read-out: IC50 HCT116/VM46
  IC50: 600 nM
HCT116/VM46; Table 3, read-out: IC50 HCT116/VM46
  IC50: 600 nM
HCT116/VM46; Table 4, read-out: IC50 HCT116/VM46
  IC50: 600 nM
HCT116/VM46; Table 5, read-out: IC50 HCT116/VM46
  IC50: 600 nM
HCT116/VM46; [5]
  IC50: 600 nM
HCT116/VM46; Table 7, C20′ sulfonamides, read-out: IC50 HCT116/VM46
  IC50: 600 nM
HCT116/VM46; Table 8, 10′-F compounds, read-out: IC50 HCT116/VM46
  IC50: 600 nM
HCT116/VM46; [6]
  IC50: 600 nM
HCT116/VM46; read-out: IC50 HCT116/VM46
  IC50: 600 nM
HCT116/VM46; table in Background, C20′ substituent X, read-out: IC50, HCT116/VM46
  IC50: 600 nM
Tubulin; FIG. 2, competitive ligand 18 μM
  percent (%) displacement of tubulin-bound BODIPY-vinblastine: 50%
Tubulin
  % displacement: 61 ± 13%
L1210 [2]
  IC50: 6 nM
L1210 [2]; Table 1
  IC50: 6 nM
L1210 [2]; Table 2
  IC50: 6 nM
L1210 [2]; Table 3
  IC50: 6 nM
L1210 [2]; Table 4
  IC50: 6 nM
L1210 [2]; Table 5
  IC50: 6 nM
L1210 [2]; Table 6
  IC50: 6 nM
L1210 [2]; Table 7, C20′ sulfonamides
  IC50: 6 nM
L1210 [2]; Table 8, 10′-F compounds
  IC50: 6 nM
Caco-2 cells
  Papp, B to A: 38.2 ± 2.0 x 10^−6 cm/s
Pgp
  % Pgp ATPase activity: 87%
